From patent US12023319B2, “Carboxylic acid aromatic amides” (priority 2016, dated 2024)

target: T1, human Bradykinin B1 receptor (Homo sapiens, UniProt P46663); experiment: Calcium flux assay (FLIPR), CHO-K1 cells expressing human Bradykinin B1 receptor, absence of 0.1% BSA (hB1 free IC50); assay type: cell-based; settings: absence of 0.1% BSA in assay buffer
T1 construct: host or cells: CHO-K1
T1 sequence (P46663 1-353): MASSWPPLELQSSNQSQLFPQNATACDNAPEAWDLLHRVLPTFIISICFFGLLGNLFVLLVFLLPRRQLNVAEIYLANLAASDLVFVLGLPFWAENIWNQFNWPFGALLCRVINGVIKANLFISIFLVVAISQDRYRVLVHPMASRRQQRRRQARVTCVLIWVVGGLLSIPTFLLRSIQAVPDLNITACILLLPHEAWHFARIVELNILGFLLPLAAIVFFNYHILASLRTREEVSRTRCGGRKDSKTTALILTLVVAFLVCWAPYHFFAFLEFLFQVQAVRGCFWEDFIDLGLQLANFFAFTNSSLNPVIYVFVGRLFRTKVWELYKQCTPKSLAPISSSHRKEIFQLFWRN
Experimental: The potency to inhibit the Bradykinin B1 receptor was determined for the Compound Examples of this invention in a cell-based fluorescent calcium-mobilisation assay. The assay measures the ability of Compound Examples to inhibit Bradykinin B1 receptor agonist-induced increase of intracellular free Ca^2+ in the cell line expressing Bradykinin B1 receptor. Specifically, calcium indicator-loaded cells are pre-incubated in the absence or presence of different concentrations of Compound Examples followed by the stimulation with a selective Bradykinin B1 receptor agonist peptide. The change of the intracellular Ca^2+ concentration is monitored with a fluorescent plate reader FLIPR^TETRA® (Molecular Devices).
Calcium Flux Assays (FLIPR) with Cells Expressing Human Bradykinin B1 Receptor (hB1)
CHO-K1 cell line expressing human Bradykinin B1 receptor is purchased from Euroscreen (Gosselies, Belgium, with reference name hB1-D1). The cells are grown in Nutrient Mixture Ham's F12 (Sigma) containing 10% Foetal bovine serum (Sigma) and 400 μg/mL G418 (Sigma), 5 μg/mL puromycin (Sigma).
The effect of BSA on the potency of endothelin receptor antagonists have been described in the prior art (Wu-Wong, J. R. et al. (1997), JPET 281: 791-798). The teaching can be applied in analogy to testing the potency of Bradykinin B1 receptor antagonist in the FLIPR assays.
For the calcium flux assay, 80% confluent cells are detached from the culture vessels with Versene (Gibco), and seeded into 384-well plates (Cell binding Surface; Corning, NY; #3683) at a density of 15,000 cells per well. Cells are seeded in a volume of 50 μL in medium without antibiotics and incubated overnight in a humidified atmosphere with 5% CO2 at 37° C. […] The calcium indicator loaded cells are incubated at 37° C. for 2 hrs. Extracellular dye is then removed and each well is filled with 45 μL of assay buffer. Cell plates are kept in dark until used. Compound examples are assayed at 8 concentrations in triplicate. Serial 10-fold dilutions in 100% DMSO are made at a 100-times higher concentration than the final concentration, and then diluted 1:10 in assay buffer. 5 μL of each diluted compound is added to the well of cell plates (yielding final concentration with 1% DMSO), and incubated for 30 min at 28° C. before the addition of Bradykinin B1 receptor agonist on the FLIPR instrument.
The addition of agonist 20 μl per well to the assay plate is carried out on the FLIPR instrument while continuously monitoring Ca2+-dependent fluorescence at 538 nm. A peptide antagonist Lys-(Des-Arg-Leu)-Bradykinin (Bachem, Brackley) at 20 µM is used to determine the full inhibition as control.
Peak fluorescence is used to determine the response to agonist obtained at each concentration of Compound Examples by the following equation: % Response=100*(RFU(compound)−RFU(control))/(RFU(DMSO)−RFU(control))
RFU means relative fluorescence units.
Control means full inhibition by the peptide antagonist Lys-(Des-Arg-Leu)-Bradykinin at 20 µM.
The response values are plotted against the logarithm of the compound concentrations. The Compound Examples are tested in triplicates per plate and mean values are plotted in Excel XLfit to determine IC50 values, percentage of maximal inhibition and the Hill slopes.

How did the IC50 turn out when `CC(C)(C)c1cn(-c2c(F)cc(NC(=O)C3(c4ccc(C(F)(F)F)cc4F)CC3)cc2C(=O)O)cn1` [Example 90, 2-(4-tert-Butyl-1H-imidazol-1-yl)-3-fluoro-5-[({1-[2-fluoro-4-(trifluoromethyl)phenyl]cyclopropyl}carbonyl)amino]benzoic acid] was run?
Its IC50 is 0.024 µM.

Which IC50 does the source give for `CC(C)Cn1cc(-c2c(F)cc(NC(=O)C3(c4ccc(C(F)(F)F)cc4F)CC3)cc2C(=O)O)cn1` [Example 92, 3-Fluoro-5-[({1-[2-fluoro-4-(trifluoromethyl)phenyl]cyclopropyl}carbonyl)amino]-2-(1-isobutyl-1H-pyrazol-4-yl)benzoic acid] here?
Its IC50 is 0.029 µM.

For `CC(C)(C)n1cc(-c2c(F)cc(NC(=O)C3(c4ccc(C(F)(F)F)cc4F)CC3)cc2C(=O)O)cn1` [Example 93, 2-(1-tert-Butyl-1H-pyrazol-4-yl)-3-fluoro-5-[({1-[2-fluoro-4-(trifluoromethyl)phenyl]cyclopropyl}carbonyl)amino]benzoic acid], which IC50 is on record?
The IC50 was 0.061 µM.

How did the IC50 turn out when `O=C(O)c1cc(NC(=O)C2(c3ccc(C(F)(F)F)cc3F)CC2)cc(F)c1-c1ccc(C(F)F)nc1` [Example 94, 2-[6-(Difluoromethyl)pyridin-3-yl]-3-fluoro-5-[({1-[2-fluoro-4-(trifluoromethyl)phenyl]cyclopropyl}carbonyl)amino]benzoic acid] was run?
Its IC50 is 0.02 µM.

For `O=C(O)c1c(-c2cnn(C3CCC3)c2)ccc(NC(=O)C2(c3ccc(C(F)(F)F)cc3F)CC2)c1F` [Example 98, 6-(1-Cyclobutyl-1H-pyrazol-4-yl)-2-fluoro-3-[({1-[2-fluoro-4-(trifluoromethyl)phenyl]cyclopropyl}carbonyl)amino]benzoic acid], which IC50 is on record?
The IC50 was 2.7 µM.

With `O=C(O)c1c(-c2cnn(C3CCC3)c2)ccc(NC(=O)C2(c3ccc(OC(F)(F)F)cc3F)CC2)c1F` [Example 99, 6-(1-Cyclobutyl-1H-pyrazol-4-yl)-2-fluoro-3-[({1-[2-fluoro-4-(trifluoromethoxy)phenyl]cyclopropyl}carbonyl)amino]benzoic acid] as the compound, how does the IC50 read?
The IC50 was 2 µM.

`O=C(O)c1cc(NC(=O)C2(c3ccc(C(F)(F)F)cc3F)CC2)cc(Cl)c1-c1ccc(C(F)F)nc1` [Example 102, 3-Chloro-2-[6-(difluoromethyl)pyridin-3-yl]-5-[({1-[2-fluoro-4-(trifluoromethyl)phenyl]cyclopropyl}carbonyl)amino]benzoic acid] was tested. Which IC50 did it give?
Its IC50 is 0.11 µM.

How did the IC50 turn out when `O=C(O)c1cc(NC(=O)C2(c3ccc(OC(F)(F)F)cc3F)CC2)cc(Cl)c1-c1ccc(C(F)F)nc1` [Example 103, 3-Chloro-2-[6-(difluoromethyl)pyridin-3-yl]-5-[({1-[2-fluoro-4-(trifluoromethoxy)phenyl]cyclopropyl}carbonyl)amino]benzoic acid] was run?
The IC50 was 0.062 µM.

How did the IC50 turn out when `O=C(O)c1cc(NC(=O)C2(c3ccc(C(F)(F)F)cc3F)CC2)cc(Cl)c1-c1ccc(C(F)(F)F)nc1` [Example 104, 3-Chloro-5-[({1-[2-fluoro-4-(trifluoromethyl)phenyl]cyclopropyl}carbonyl)amino]-2-[6-(trifluoromethyl)pyridin-3-yl]benzoic acid] was run?
Its IC50 is 0.13 µM.

For `Cc1cc(NC(=O)C2(c3ccc(C(F)(F)F)cc3F)CC2)cc(C(=O)O)c1-c1ccc(C(F)F)nc1` [Example 109, 2-[6-(Difluoromethyl)pyridin-3-yl]-5-[({1-[2-fluoro-4-(trifluoromethyl)phenyl]cyclopropyl}carbonyl)amino]-3-methylbenzoic acid], which IC50 is on record?
The IC50 was 0.77 µM.

`Cc1cc(NC(=O)C2(c3ccc(OC(F)(F)F)cc3F)CC2)cc(C(=O)O)c1-c1ccc(C(F)F)nc1` [Example 110, 2-[6-(Difluoromethyl)pyridin-3-yl]-5-[({1-[2-fluoro-4-(trifluoromethoxy)phenyl]cyclopropyl}carbonyl)amino]-3-methylbenzoic acid] was tested. Which IC50 did it give?
The IC50 was 0.58 µM.

For `Cc1cc(NC(=O)C2(c3ccc(C(F)(F)F)cc3F)CC2)cc(C(=O)O)c1-c1ccc(C(F)(F)F)nc1` [Example 111, 5-[({1-[2-Fluoro-4-(trifluoromethyl)phenyl]cyclopropyl}carbonyl)amino]-3-methyl-2-[6-(trifluoromethyl)pyridin-3-yl]benzoic acid], which IC50 is on record?
The IC50 was 2.4 µM.

For `CCC(F)(F)c1ccc(-c2c(C)cc(NC(=O)C3(c4ccc(C(F)(F)F)cc4F)CC3)cc2C(=O)O)cn1` [Example 112, 2-[6-(1,1-Difluoropropyl)pyridin-3-yl]-5-[({1-[2-fluoro-4-(trifluoromethyl)phenyl]cyclopropyl}carbonyl)amino]-3-methylbenzoic acid], which IC50 is on record?
The IC50 was 0.24 µM.

`CCC(F)(F)c1ccc(-c2c(C)cc(NC(=O)C3(c4ccc(OC(F)(F)F)cc4F)CC3)cc2C(=O)O)cn1` [Example 113, 2-[6-(1,1-Difluoropropyl)pyridin-3-yl]-5-[({1-[2-fluoro-4-(trifluoromethoxy)phenyl]cyclopropyl}carbonyl)amino]-3-methylbenzoic acid] was tested. Which IC50 did it give?
The IC50 was 0.12 µM.

For `CCCn1cc(-c2ccc(NC(=O)C3(c4ccc(C(F)(F)F)cc4F)CC3)cc2C(=O)O)cn1` [Example 114, 5-[({1-[2-Fluoro-4-(trifluoromethyl)phenyl]cyclopropyl}carbonyl)amino]-2-(1-propyl-1H-pyrazol-4-yl)benzoic acid], which IC50 is on record?
Its IC50 is 0.085 µM.

`CCCn1cc(-c2ccc(NC(=O)C3(c4ccc(OC(F)(F)F)cc4F)CC3)cc2C(=O)O)cn1` [Example 115, 5-[({1-[2-Fluoro-4-(trifluoromethoxy)phenyl]cyclopropyl}carbonyl)amino]-2-(1-propyl-1H-pyrazol-4-yl)benzoic acid] was tested. Which IC50 did it give?
The IC50 was 0.12 µM.

How did the IC50 turn out when `CC(C)Cn1cc(-c2ccc(NC(=O)C3(c4ccc(F)cc4F)CC3)cc2C(=O)O)cn1` [Example 116, 5-({[1-(2,4-Difluorophenyl)cyclopropyl]carbonyl}amino)-2-(1-isobutyl-1H-pyrazol-4-yl)benzoic acid] was run?
The IC50 was 0.21 µM.

With `CC(C)Cn1cc(-c2ccc(NC(=O)C3(c4ccc(Cl)cc4F)CC3)cc2C(=O)O)cn1` [Example 117, 5-({[1-(4-Chloro-2-fluorophenyl)cyclopropyl]carbonyl}amino)-2-(1-isobutyl-1H-pyrazol-4-yl)benzoic acid] as the compound, how does the IC50 read?
Its IC50 is 0.056 µM.

How did the IC50 turn out when `Cc1ccc(C2(C(=O)Nc3ccc(-c4cnn(CC(C)C)c4)c(C(=O)O)c3)CC2)c(F)c1` [Example 118, 5-({[1-(2-Fluoro-4-methylphenyl)cyclopropyl]carbonyl}amino)-2-(1-isobutyl-1H-pyrazol-4-yl)benzoic acid] was run?
The IC50 was 0.13 µM.

For `O=C(O)c1cc(NC(=O)C2(c3ccc(C(F)(F)F)cc3F)CC2)ccc1-c1cnn(CC2CCC2)c1` [Example 119, 2-[1-(Cyclobutylmethyl)-1H-pyrazol-4-yl]-5-[({1-[2-fluoro-4-(trifluoromethyl)phenyl]cyclopropyl}carbonyl)amino]benzoic acid], which IC50 is on record?
Its IC50 is 0.025 µM.

How did the IC50 turn out when `O=C(O)c1cc(NC(=O)C2(c3ccc(OC(F)(F)F)cc3F)CC2)ccc1-c1cnn(CC2CCC2)c1` [Example 120, 2-[1-(Cyclobutylmethyl)-1H-pyrazol-4-yl]-5-[({1-[2-fluoro-4-(trifluoromethoxy)phenyl]cyclopropyl}carbonyl)amino]benzoic acid] was run?
Its IC50 is 0.017 µM.

With `O=C(O)c1cc(NC(=O)C2(c3ccc(C(F)(F)F)cc3F)CC2)ccc1-c1cnn(C2CCCC2)c1` [Example 121, 2-(1-Cyclopentyl-1H-pyrazol-4-yl)-5-[({1-[2-fluoro-4-(trifluoromethyl)phenyl]cyclopropyl}carbonyl)amino]benzoic acid] as the compound, how does the IC50 read?
Its IC50 is 0.018 µM.

For `O=C(O)c1cc(NC(=O)C2(c3ccc(C(F)(F)F)cc3F)CC2)ccc1-c1cnn(C2CCCCC2)c1` [Example 122, 2-(1-Cyclohexyl-1H-pyrazol-4-yl)-5-[({1-[2-fluoro-4-(trifluoromethyl)phenyl]cyclopropyl}carbonyl)amino]benzoic acid], which IC50 is on record?
Its IC50 is 0.013 µM.
